According to patent US6951883B2, “2H-1-benzopyran derivatives processes for their preparation and pharmaceutical compositions thereof” (Chiesi Farmaceutici S.p.A., priority 2001, dated 2005):

Key:
[1] = tested on: OVX rats; assay: Four-week OVX rat assay, bone mineral density (lumbar spine L1-4) by DEXA; format: in vivo; settings: 4 weeks
Procedure: Effects in the Ovariectomized (OVX) Rat Model
(§1) The experiments have been conducted according to Kaln D N, Bone Mineral 15, 175-192, 1991 and Grese T A et al J Med Chem 40, 146-167, 1997.
(§2) The effects of the tested compounds were evaluated also in 9-11-month-old OVX rats that were dosed for 4 weeks post-surgery and compared with OVX and Sham controls.
(§3) Tissue-specific estrogen agonist effects were examined utilizing uterine weight, uterine histology, uterine eosinophil peroxidase activity (EPO), bone mineral density (BMD), and serum cholesterol levels as end points.
Effect on Bone Mineral Density (BMD) (Lumbar Spine L1-4)
Bone mineral density (BMD) was measured by DEXA (Dual Energy XRay Absorptiometry) using a Hologic QDR-1000 plus instrument equipped with dedicated software for small animal measurements. An ultrahigh-resolution mode (line spacing 0.0254 cm and resolution 0.0127 cm) was used with a collimator of 0.63 mm diameter. This technique provides an integrated measure of both cortical and trabecular bone.
In vivo DEXA measurements were carried out immediately before surgery (baseline scan) and 4 weeks after surgery. The anatomic region examined was the lumbar spine L1-4.
All animals were anesthetized before scanning with a mixture of ketamine and p-promazine. For each scan a rat was placed in a supine position with the spine parallel to the long axis of the densitometer table. The lumbar spine was scanned using the pelvic bones as landmark; analysis of this site was accomplished by dividing vertebra and intervertebral spaces with subregional high resolution software and including only target vertebra in the global region of interest.
Percent protection was calculated by the following formula: % protection=[(% chance BMDtest compound−% chance BMDOVX control)/(% chance BMDsham control−% chance BMDOVX control)]×100.

[2] = tested on: immature female rats (E2-stimulated uterus); assay: Immature female rat assay, antiuterotrophic activity; format: in vivo
Source text: (§4) In Vivo Studies—Immature Female Rat Assay.
Antiuterotrophic Activity
(§5) Experiments have been conducted as described in Eppenberger U et al, Am J Clin Oncol 14 (suppl. 2), S5-S14, 1991.
This concentration of E2 was the lowest producing near-maximal effect and was chosen on the basis of preliminary dose-response experiments.

[3] = tested on: OVX rats; assay: Four-week OVX rat assay, uterine effects (weight, eosinophil peroxidase, histology); settings: in vivo
Procedure: as §1, §2, §3
The degree of eosinophilic peroxidase induction of the uterus may be a useful marker for estrogen-effected growth responses (Lyttle C R and DeSombre E R Proc Natl Acad Sci USA 74, 3162-3166, 1977).

[4] = tested on: OVX rats; assay: Four-week OVX rat assay, serum cholesterol levels; format: in vivo; settings: for lowering of serum cholesterol levels, comparison in words: with respect to controls, compared with E2 / Compound II
Procedure: as §1, §2, §3
Effect on Serum Cholesterol Levels

[5] = molecular target: human ER-β (Homo sapiens, UniProt Q92731); assay: Human estrogen receptor-β binding; settings: for affinity for ER-β higher than raloxifene: compared with raloxifene
Chain of human ER-β (Q92731 whole entry): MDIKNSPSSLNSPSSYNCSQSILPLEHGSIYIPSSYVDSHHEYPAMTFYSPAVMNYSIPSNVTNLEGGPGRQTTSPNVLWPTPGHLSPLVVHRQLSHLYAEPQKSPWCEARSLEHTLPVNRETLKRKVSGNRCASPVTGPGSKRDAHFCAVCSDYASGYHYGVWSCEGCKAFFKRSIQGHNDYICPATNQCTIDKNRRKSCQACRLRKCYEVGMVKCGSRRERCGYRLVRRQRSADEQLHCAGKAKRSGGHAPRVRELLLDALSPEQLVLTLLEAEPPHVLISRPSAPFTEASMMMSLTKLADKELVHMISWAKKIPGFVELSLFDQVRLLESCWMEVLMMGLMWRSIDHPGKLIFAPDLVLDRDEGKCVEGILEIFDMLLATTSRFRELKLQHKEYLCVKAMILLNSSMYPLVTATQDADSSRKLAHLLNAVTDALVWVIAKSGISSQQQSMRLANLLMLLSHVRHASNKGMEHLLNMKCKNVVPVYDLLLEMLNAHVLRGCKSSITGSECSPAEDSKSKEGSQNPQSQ
Source text: (§6) In Vitro Study—Human Estrogen Receptor-α and -β (ER-α and ER-β)

[6] = tested on: immature female rats (uterine weight); assay: Immature female rat assay, uterotrophic activity; format: in vivo; settings: for increase of uterine weight compared with vehicle treated control rats: 0.1 mg/kg/day; for uterine weight versus control rats: 0.01, 1 and 10 mg/kg/day; for uterine weights versus control rats: 0.01, 0.1, 1 and 10 mg/kg·day
Source text: as §4, §5

[7] = tested on: MCF-7; assay: cells; settings: for concentration of total growth inhibition: 72-hours incubation; for IC50: read-out: Inhibitory Concentration IC50
Procedure: In Vitro Study—MCF-7 Cell Proliferation
The tumor cells were obtained from American Type Culture Collection (ATCC HTB-22). The culture media used was Minimum Essential medium with 10% fetal bovine serum, and media were supplemented with 1% antibiotic-antimycotic. Aliquots of 100 μl of cell suspension (5×10^3/well) were placed in 96-well microtiter plates in an atmosphere of 5% CO2 at 37° C. After 24 hours, 100 μl of growth medium, 2 μl of test solution, mitomycin or vehicle (DMSO, final concentration 0.4%), was added respectively per well in duplicate for an additional 72-hours incubation. At the end of incubation, 20 μl of alamarBlue 75% reagent was added to each well for another 6-hour incubation before detection of cell viability by fluorescent intensity (excitation at 530 nm and emission at 590 nm).

[8] = molecular target: T1, human ER-α (Homo sapiens, UniProt P03372); assay: Human estrogen receptor-α binding
T1 sequence (P03372 1-595): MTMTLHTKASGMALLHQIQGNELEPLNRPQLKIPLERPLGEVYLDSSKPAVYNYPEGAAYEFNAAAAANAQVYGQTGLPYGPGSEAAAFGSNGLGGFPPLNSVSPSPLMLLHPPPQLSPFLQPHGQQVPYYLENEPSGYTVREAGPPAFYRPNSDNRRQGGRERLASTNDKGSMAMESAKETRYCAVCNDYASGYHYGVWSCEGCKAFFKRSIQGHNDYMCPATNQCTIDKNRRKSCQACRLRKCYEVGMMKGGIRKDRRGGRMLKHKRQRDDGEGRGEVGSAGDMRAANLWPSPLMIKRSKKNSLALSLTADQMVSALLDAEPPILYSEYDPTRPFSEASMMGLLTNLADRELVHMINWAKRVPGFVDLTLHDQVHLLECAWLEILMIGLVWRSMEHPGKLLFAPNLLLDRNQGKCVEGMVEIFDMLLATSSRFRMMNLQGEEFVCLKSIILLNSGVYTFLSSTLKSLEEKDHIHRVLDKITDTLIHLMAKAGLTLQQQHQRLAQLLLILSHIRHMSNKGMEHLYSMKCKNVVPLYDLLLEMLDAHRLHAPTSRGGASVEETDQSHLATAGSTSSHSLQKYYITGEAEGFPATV
Source text: as §6

[9] = Solubility in water; format: physicochemical; settings: r.t.
[10] = oral, E2 0.05 mg/kg per os for 3 days

17α-ethynil estradiol [reference compound]
% protection of BMD ([1]; first experiment, 0.1 mg/kg): ~50%
% protection of BMD ([1]; second experiment, 0.1 mg/kg): ~95%
increase of uterine wet weight compared with vehicle-treated controls ([2]; 0.05 mg/kg per os for 3 days): 170-220%
uterine epithelia / endometrium histology [3]: full disappearance of epithelium atrophy

Oc1ccc2c(c1)OCC(c1ccccc1)=C2Cc1ccc(OCCN2CCCCC2)cc1 [Compound I, 3-phenyl-4-(4-(2-(N-piperidinyl)ethoxy)benzyl)-7-hydroxychrom-3-ene]
maximal lowering of cholesterol, inhibition relative to the OVX control ([4]; 10 mg/kg): 67%
ED50 ([4]; Rattus norvegicus, 672 h, 0.1-10 mg/kg day, 4 weeks, read-out: ED50, decrease of total serum cholesterol (half maximal efficacy)): 0.12 mg/kg
Ki [5]: 0.157 ± 0.028 nM
affinity for ER-β higher than raloxifene [5]: 10 fold
increase of uterine weight compared with vehicle treated control rats [6]: 17%
uterine weight versus control rats [6]: not significantly different from control rats
concentration of total growth inhibition [7]: 11 µM
CC50 ([7]; Homo sapiens, MCF7, 72 h, read-out: 50% lethal concentrations (LC50)): 20000 nM
IC50 ([7]; Homo sapiens, MCF7, 72 h): 6500 nM
% protection of BMD ([1]; first experiment, 10 mg/kg/day): 47%
Ki [8]: 0.041 ± 0.011 nM
dose at which total antagonism of E2 uterotrophic action was observed ([2]; oral): 1 to 10 mg/kg/day
EC50, inhibition of the uterotrophic action of E2 [2, 10]: 0.33 mg/kg·day

COc1ccc(C2=C(Cc3ccc(OCCN4CCCCC4)cc3)c3ccc(O)cc3OC2)cc1.Cl [Compound II, 3-(4-methoxy)phenyl-4-[[4-[2-(1-piperidinyl)ethoxyl]phenyl]methyl]-2H-1-benzopyran-7-ol hydrochloride]
decrease of total serum cholesterol, inhibition ([4]; 0.1 mg/kg·day): 75%
decrease of total serum cholesterol, inhibition ([4]; 1 mg/kg·day): 81%
lowering of serum cholesterol levels, comparison in words [4]: as efficacious as E2
Ki [5]: 0.099 ± 0.005 nM
affinity for ER-β higher than raloxifene [5]: 16 fold
uterine weights versus control rats [6]: not significantly different from control rats
% protection of BMD ([1]; second experiment, 0.1 mg/kg): 60%
% protection of BMD ([1]; second experiment, 1 mg/kg·day): 119%
Ki [8]: 0.017 ± 0.002 nM
dose at which total antagonism of E2 uterotrophic action was observed ([2]; oral): 0.1-1 mg/kg·day
ED50 = dose required to produce 50% reduction in estradiol-stimulated growth [2, 10]: 0.016 mg/kg·day

CS(=O)(=O)O.Oc1ccc2c(c1)OCC(c1ccccc1)=C2Cc1ccc(OCCN2CCCCC2)cc1 [Example 43, 3-phenyl-4-(4-(2-(N-piperidinyl)ethoxy)benzyl)-7-hydroxychrom-3-ene methansulfonate (1:1)]
solubility [9]: > 1000 µg/mL

COc1ccc2c(c1)OC(C)(C)[C@@H](c1ccccc1)[C@@H]2c1ccc(OCCN2CCCC2)cc1 [levormeloxifene]
lowering of serum cholesterol levels, comparison in words [4]: significantly less potent
uterine weights versus control rats [6]: significantly increased
maximal agonist activity, % that of E2 ([6]; at 1 mg/kg): 60-65%
inhibition of E2 stimulation of the uterus ([2]; at 1 mg/kg/day, partial antagonism): 40-45%
eosinophilic peroxidase activity compared to OVX uteri [3]: significantly increased
uterine epithelia / endometrium histology [3]: full disappearance of epithelium atrophy

O=C(c1ccc(OCCN2CCCCC2)cc1)c1c(-c2ccc(O)cc2)sc2cc(O)ccc12 [raloxifene]
lowering of serum cholesterol levels, comparison in words [4]: significantly less potent
increase of uterine weight compared with vehicle treated control rats [6]: 32%
uterine weights versus control rats [6]: not significantly different from control rats
uterine weight versus control rats [6]: not significantly different from control rats
concentration of total growth inhibition [7]: 18 µM
IC50 ([7]; Homo sapiens, MCF7, 72 h): 11000 nM
ED50 = dose required to produce 50% reduction in estradiol-stimulated growth [2, 10]: 0.39 mg/kg·day

CC/C(=C(\c1ccccc1)c1ccc(OCCN(C)C)cc1)c1ccccc1 [tamoxifene]
concentration of total growth inhibition [7]: 11 µM
